Results reported in patent publication US6495376B1, “Methods and compositions for regulating protein-protein interactions” (Beth Israel Deaconess Medical Center, priority 1999, dated 2002).
Like-named read-outs stand apart in the source and are kept apart here. Where no end group is shown, it is not given here. [ ]: non-standard residue; d: D form. pT = C[C@@H](OP(=O)(O)O)[C@H](N)C(=O)O; pS = N[C@@H](COP(=O)(O)O)C(=O)O

Columns and labels:
Pin1 = Pin1 (Homo sapiens, UniProt Q13526); test: ELISA peptide binding to Pin1; details: for Binding (OD@405 nm), tau peptides: Pin1; for Binding (OD@405 nm), Amyloid Precursor Protein Peptide: protein not printed in these lines, text: Pin1 WW-domain
Pin1, sequence (Q13526 whole entry): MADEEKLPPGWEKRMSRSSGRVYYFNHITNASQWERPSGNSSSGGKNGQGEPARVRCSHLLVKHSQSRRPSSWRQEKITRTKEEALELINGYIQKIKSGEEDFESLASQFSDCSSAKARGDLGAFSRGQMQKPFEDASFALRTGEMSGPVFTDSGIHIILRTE

Pin1 and its WW-domain = test: Peptide competition of Pin1 / WW-domain binding to MPM-2 antigens of mitotic extracts; design: species or system human; details: for competition for phosphoprotein binding (in words): 0, 25, 50, 125, 250, 500 μM peptide
Pin1 and its WW-domain, sequence (Q13526 1-54 limits assumed): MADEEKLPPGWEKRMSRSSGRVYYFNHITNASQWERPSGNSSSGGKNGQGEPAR
Protocol: To examine the ability of a phosphopeptide to compete with phosphoproteins for binding to the WW-domain, the Pin1 binding phosphopeptide Pintide (WFYpSPRLKK, SEQ ID NO: 13) (Lu, K. P. et al., U.S. Ser. No. 60/058,164 (1997)) was used in competition assays. A nonphosphorylated counterpart of Pintide ([…], SEQ ID NO: 14) (C-Pintide) was used as a control.
(§1) Pintide and its nonphosphorylated counterpart were synthesized and incubated with GST-Pin1 or the GST-WW-domain of Pin1 in a binding buffer, using established procedures (Shen, M. et al., Genes & Dev 12:706 (1998)). After a 1 hr incubation, mitotic HeLa cell extracts were added and subjected to GST pull down experiments, followed by immunoblotting analysis using the MPM-2 antibody. To obtain semi-quantitative data, films of immunoblots were scanned at the region of 55 kDa, the major Pin1-binding protein, and data analyzed using ImageQuan (ScanJet II CX). The peptide binding constants were measured using a fluorescence polarization assay (Jiskoot, W. et al., Anal Biochem 196:421 (1991)). Peptides were fluorescein labeled at the N-terminus using the Fluorescein Amine Labeling Kit (Pan Vera Corp.) and purified by TLC according to the manufacturer's […]. To prevent nonspecific labeling, a Pintide analogue (WFYpSPFLE) SEQ ID NO: 8 and the nonphosphorylated control were used. Various concentrations of Pin1 and its mutant proteins were incubated with 0.1 μM of the labeled peptides in a binding buffer containing 50 mM HEPES, pH 7.4, 100 mM NaCl, 2% glycerol. Fluorescence polarization values were obtained using a Pan Vera Beacon 2000 system, as described by the manufacturer.

WFYpSPFLE (Pintide) = test: Fluorescence anisotropy (polarization) binding to fluorescein-labeled phosphorylated Pintide analogue
Source text: To determine the affinity of Pin1, and its WW or PPIase domain for phosphopeptides, peptides were labeled with fluorescein and their interactions with Pin1 measured using quantitative fluorescence anisotrophy. To prevent nonspecific labeling, a Pintide analogue (WFYpSPFLE) SEQ ID NO: 9 was used, which binds Pin1 with a high affinity based on the peptide library screen as described by (Lu, K. P. et al., U.S. Ser. No. 60/058,164 (1997), the teachings of which are incorporated herein in their entirety.
as §1

[1] = test system: MPM-2 antigens (mitotic phosphoproteins) of mitotic HeLa cell extracts; test: GST pulldown from mitotic HeLa cell extracts, MPM-2 immunoblotting (phosphoprotein-binding activity); details: for Phosphoprotein binding activity: GST-fusion proteins with mitotic extracts, MPM2 antibody; for binding to mitotic phosphoproteins / MPM-2 antigens (in words): mitotic HeLa cell extracts
Protocol: GST-fusion proteins containing the WW-domain, PPIase-domain or the entire Pin 1 protein were prepared and incubated with interphase (G1/S arrested; Control) or dividing (M phase) HeLa cell extracts using well-known procedures (Lu, K. P., et al., Nature 380:544 (1996); (Shen, M., et al., Genes & Devl. 12:706 (1998)). Briefly, HeLa cells were arrested at the G1/S boundary or mitosis by incubation with thymidine and aphidicolin or nocodazole for 16 h, respectively. The cells were lysed and supernatants incubated with 10 μl of agarose beads containing GST-Pin1; GST-WW-domain of Pin1; GST-PPIase domain of Pin1; or control GST for 2 h at 4° C. The phosphorylated precipitated proteins were washed 5 times in buffer containing 1% Triton X-100 before subjecting to immunoblotting analysis using MPM-2 antibody, as described previously (Yaffe, M. B. et al., Science 278:1957 (1997); Schukowski, et al., Biochemistry 37:5566 (1998); Shen, M. et al., Genes & Dev 12:706 (1998)). MPM-2 recognizes a subset of mitotic phosphoproteins including Pin1-binding proteins such as cdc25.
as §1
To examine the effect of Pin1 phosphorylation on Pin1 binding to ligands, Pin1 and Pin1 mutant proteins were incubated with the catalytic subunit of PKA and PKC (a mixture of α, β and γ, UBI) in a kinase reaction buffer containing 500 μM cold ATP at 30° C. for 15 min (Lu, K. P. et al., Anal. Biochem. 196:421 (1991)). The reactions were stopped by adding SDS sample buffer and reaction products separated on SDS-gels, followed by autoradiography. Pin1 proteins were isolated and used to bind MPM-2 antigens from mitotic extracts from HeLa cells, as previously described (Shen, M., et al., Genes & Dev 12:706 (1998)). Experiments were also performed with PKA and PKC, casein kinase, cyclin B/Cdc2 and SRPK1 kinases.

peptide substrate = test: PPIase activity assay with peptide substrate; format: biochemical; details: relative to wild-type protein defined as 100%
WFYSPFLE = test: Fluorescence anisotropy binding to fluorescein-labeled nonphosphorylated control peptide; details: nonphosphorylated peptide
phosphorylated tau = test: GST-Pin1 pulldown of tau; format: binding; details: AD brain extracts, PHFs or age-matched normal brain extracts
phosphorylated tau, sequence (P10636 45-216 isoform P10636-2 limits assumed): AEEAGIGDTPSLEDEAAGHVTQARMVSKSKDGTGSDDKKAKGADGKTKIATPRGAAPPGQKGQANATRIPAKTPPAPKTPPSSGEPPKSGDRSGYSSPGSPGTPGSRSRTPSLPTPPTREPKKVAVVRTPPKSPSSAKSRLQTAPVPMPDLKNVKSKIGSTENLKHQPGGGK
Source text: Pin1 binds and regulates the function of a defined subset of mitotic phosphoproteins by interacting with conserved phosphorylated Ser/Thr-Pro motifs that are also recognized by MPM-2, a mitosis-specific, phosphorylation-dependent monoclonal antibody (mAb) (Yaffe, M. B. et al., Science 278:1957-1960 (1997); Shen, M. et al., Genes Dev. 12:706-720 (1 998)). Tau is an MPM-2 antigen phosphorylated on multiple Ser/Thr-Pro motifs during mitosis (Illenberger, S. et al., Mol Biol Cell 9:1495-1512 (1998)). Experiments were undertaken to determine whether Pin1 binds tau. Tau isoform was either synthesized by in vitro transcription and translation in the presence of ^35S-Met or produced in bacteria as an N-terminal His-tagged protein, followed by purification using NTA-Ni columns (Yaffe, M. B. et al., Science 278:1957-1960 (1997); Shen, M. et al., Genes Dev. 12:706-720 (1998)). To generate interphase- and mitosis-specific phosphorylated form of tau, tau was incubated with Xenopus interphase and mitotic extracts, respectively (Shen, M. et al., Genes Dev. 12:706-720 (1998)). To prepare Cdc2 phosphorylated tau, purified recombinant tau was incubated with purified cyclin B/Cdc2 (UBI) for 6 to 12 hr at room temperature in a buffer containing 500 μM cold ATP, plus trace [^32P]-ATP in some experiments, (Vincent, I. et al., J Neurosci 17:3588-3598 (1997)).
Pin1 interactions with tau in AD brains were examined using a GST-Pin1 pulldown assay (Shen, M. et al., Genes Dev. 12:706-720 (1998)). Glutathione beads containing GST or GST-Pin1 were incubated with normal or AD brain extracts, or PHFs purified (Vincent, I. J. and Davies, P. Proc Natl Acad Sci USA 89:2878-2882 (1992)), and proteins associated with the beads were subjected to immunoblotting analysis using CP27, which recognizes all forms of tau. Recombinant and mutant Pin1 proteins were produced as N-terminal GST or His-tagged fusion proteins (Shen, M. et al., Genes Dev. 12:706-720 (1998)). PHFs were purified by immunoaffinity chromatography (Vincent, I. J. and Davies, P. Proc Natl Acad Sci USA 89:2878-2882 (1992)).
To determine whether Pin1 interacts with pT231-tau, GST-Pin1 beads were used to isolate tau from AD brain extracts or PHFs and T231 phosphorylation detected using CP9. Tau isolated by Pin1 beads was strongly immunoreactive with CP9. […] Thus, Pin1 binds pT231-tau through its WW-domain.

[2] = high affinity binding site, read-out: WFYpSPFLE Kd(μM) High affinity
[3] = low affinity binding site, read-out: WFYpSPFLE Kd(μM) Low affinity
[4] = competition with MPM2 antigens of mitotic extracts
[5] = fluorescein labeled Pintide, high affinity pSer-binding site in the WW-domain, read-out: Kd for Pintide

NVSSTGSIDMVDS (also: phosphoserine, place not given here) [pS-416]
Binding (OD@405 nm), tau peptides (Pin1): 0.00 OD@405 nm

KEVDAAVTPEERHLS [pT-668] (KEVDAAV[pT]PEERHLS)
Binding (OD@405 nm), Amyloid Precursor Protein Peptide (Pin1): 1.81 OD@405 nm

KEVDAAVTPEERHLS [T-668]
Binding (OD@405 nm), Amyloid Precursor Protein Peptide (Pin1): 0.00 OD@405 nm

TRIPAKTPPAPKT (also: phosphorylated Thr, place not given here) [pT-175]
Binding (OD@405 nm), tau peptides (Pin1): 0.00 OD@405 nm

PRHLSNVSSTGSIDMV [pS-413] (PRHLSNVS[pS]TGSIDMV)
Binding (OD@405 nm), tau peptides (Pin1): 0.00 OD@405 nm

VQSKIGSLDNITH (also: phosphoserine, place not given here) [pS-356]
Binding (OD@405 nm), tau peptides (Pin1): 0.00 OD@405 nm

VRTPPKSPSSAKSR (also: phosphoserine, place not given here) [pS-235]
Binding (OD@405 nm), tau peptides (Pin1): 0.11 OD@405 nm

TSPRHLSNVSSTG (also: phosphoserine, place not given here) [pS-409]
Binding (OD@405 nm), tau peptides (Pin1): 0.00 OD@405 nm

SIDMVDSPQLATL (also: phosphorylated Ser, place not given here) [pS-422]
Binding (OD@405 nm), tau peptides (Pin1): 0.00 OD@405 nm

WFYSPRLKK (not fully specified) [C-Pintide, nonphosphorylated counterpart of Pintide, control, reference compound]
competition for phosphoprotein binding (in words) (Pin1 and its WW-domain): not with the nonphosphorylated peptide

Pin1^S18E: Pin1 with Ser-18 mutated to Glu
Kd (WFYpSPFLE (Pintide); [2]): 1 µM
Kd (WFYpSPFLE (Pintide); [3]): 12 µM
Phosphoprotein binding activity [1]: + (binding was detected)
binding to mitotic phosphoproteins / MPM-2 antigens (in words) [1]: did not affect the ability of Pin1 to bind phosphoproteins
PPlase Activity (%) (peptide substrate): 98%

PRHLSNVSSTGSIDMV [pS-412] (PRHLSNV[pS]STGSIDMV)
Binding (OD@405 nm), tau peptides (Pin1): 0.02 OD@405 nm

DAGLKESPLQTPTE (DAGLKE[pS]PLQTPTE) [pS-46]
Binding (OD@405 nm), tau peptides (Pin1): 0.00 OD@405 nm

WFYpSPRLKK (WFY[pS]PRLKK) [Pintide]
competition for phosphoprotein binding (in words) (Pin1 and its WW-domain): significantly reduced in a concentration dependent manner
peptide concentration with complete competition (Pin1 and its WW-domain; [4]): 250 to 500 µM
peptide concentration with significant competition (Pin1 and its WW-domain; [4]): 50 µM

Pin1^R14A: Pin1 with substitution of Arg-14 with Ala
Kd (WFYpSPFLE (Pintide); [5]): 2 µM
Kd (WFYpSPFLE (Pintide); [2]): 2 µM
Kd (WFYpSPFLE (Pintide); [3]): 13.5 µM
Phosphoprotein binding activity [1]: + (binding was detected)
binding to mitotic phosphoproteins / MPM-2 antigens (in words) [1]: did not appear to cause a significant change
PPlase Activity (%) (peptide substrate): 92%

GSLDNITHVPGGG (GSLDNI[pT]HVPGGG) [pT-361]
Binding (OD@405 nm), tau peptides (Pin1): 0.00 OD@405 nm

GYSSPGSPGTPGSR (also: phosphoserine, place not given here) [pS-202]
Binding (OD@405 nm), tau peptides (Pin1): 0.08 OD@405 nm

Pin1^Y23F: Pin1 mutant, Tyr-23 replaced by Phe
Kd (WFYpSPFLE (Pintide); [5]): 5 µM
PPlase Activity (%) (peptide substrate): 94%

GST-Pin1: GST-fusion protein containing the entire Pin1 protein
Kd (WFYpSPFLE (Pintide); [2]): 1.2 µM
Kd (WFYpSPFLE (Pintide); [3]): 13 µM
WFYSPFLE Kd (WFYSPFLE): Not binding
binding to tau of brain extracts (phosphorylated tau): bound tau present in AD brain extracts or PHFs

SRSRTPSLPTPPT (also: phosphoserine, place not given here) [pS-214]
Binding (OD@405 nm), tau peptides (Pin1): 0.00 OD@405 nm

Pin1^S16A: Pin1 with Ser-16 substituted with Ala
Kd (WFYpSPFLE (Pintide); [5]): 1.2 µM
Kd (WFYpSPFLE (Pintide); [2]): 1.2 µM
Kd (WFYpSPFLE (Pintide); [3]): 10.5 µM
Phosphoprotein binding activity [1]: + (binding was detected)
binding to mitotic phosphoproteins / MPM-2 antigens (in words) [1]: interacted with all Pin1 ligands
effect of phosphorylation by PKA on interaction with MPM2 antigens ([1]; protein phosphorylated by PKA before binding): not affected by PKA phosphorylation
PPlase Activity (%) (peptide substrate): 96%

KVAVVRTPPKSPS [T-231]
Binding (OD@405 nm), tau peptides (Pin1): 0.00 OD@405 nm
